The values below come from patent US10369163B2, “Anti-fatigue composition” (AJINOMOTO CO., INC., priority 2013, dated 2019).

For data set [1], the system named is males feeling decrease in the quality of sleep and fatigue. The data set can be described thus: Crossover test of histidine ingestion for 14 days (POMS, VAS questionnaires, CogHealth). Type of data set: in vivo, human. The source says: Twenty males of 45 years old to less than 65 years old, who received total evaluation of not less than 17 points in the “self-diagnosis fatigue questionnaire” (Fatigue Science Laboratory Inc.), felt decrease in the quality of sleep (generally PSQI≥6), and obtained fatigue factor T scores of not less than 60 points in POMS, performed in advance, were selected, and randomly divided into 2 groups (10 per group). A crossover test, including ingesting histidine and control food (equal volume of cellulose) each for 14 days, was performed in each group. As shown in the experiment protocol of FIG. 9A, the test subjects ingested capsules containing 1.65 g of L-histidine as a daily ingestion amount (5 capsules (hard capsule #2 WHITE OP B/C) containing 0.33 g of L-histidine alone), or control sample capsules (5 capsules containing equal volume of cellulose) for 14 days. After the completion of 14 day ingestion, a 14 day resting period was taken. After the resting period, they ingested the capsules not ingested before the resting period. On the initial day and the day after completion of the capsule ingestion period, the test subjects answered POMS and the VAS questionnaires (fatigue, depression, vague sense, drowsiness, clear thinking, motivation, attentiveness, concentration) relating to fatigue, and cognitive function measurement task CogHealth (under higher difficulty conditions by simultaneously including mental arithmetic task as well) to measure intellectual performance which is one of the fatigue indices. Furthermore, they answered VAS questionnaires after completion of CogHealth.

The test system is the same in data set [2]. Briefly: Single histidine ingestion (VAS questionnaires, CogHealth). It is filed as in vivo, human. The source says:
Twenty males of 45 years old to less than 65 years old, who received total evaluation of not less than 17 points in the “self-diagnosis fatigue questionnaire” (Fatigue Science Laboratory Inc.), felt decrease in the quality of sleep (generally PSQI≥6), and obtained fatigue factor T scores of not less than 60 points in POMS performed in advance, were selected, and randomly divided into 2 groups (10 per group). The effect of single ingestion of histidine and control food (equal volume of cellulose) was compared in each group. As shown in the experiment protocol of FIG. 10A, the test subjects took the same meals for 3 days before the experiment, fasted for 10 to for 14 hr, and ingested capsules containing 1.65 g of L-histidine as a single ingestion amount (5 capsules (hard capsule #2 WHITE OP B/C) containing 0.33 g of L-histidine alone), or control sample capsules (5 capsules containing equal volume of cellulose). Before and 1 hr after ingestion of capsules, the test subjects answered the VAS questionnaires (fatigue, depression, vague sense, drowsiness, clear thinking, motivation, attentiveness, concentration) relating to fatigue, and cognitive function measurement task CogHealth (under higher difficulty conditions by simultaneously including mental arithmetic task as well) to measure intellectual performance which is one of the fatigue indices. Furthermore, they answered VAS questionnaires after completion of CogHealth.

Data set [3] is described as follows: Safety of His ingestion: general properties, hematology, blood biochemistry. It is filed as in vivo, human. The note with it: ingestion of His (1.65 g, single or 14 days) in test subjects.
The test system of another data set is CD2F1 mice. Briefly: Y-maze test, short-working memory (alternation behavior) after 48 hr burden of insufficient sleep. It is filed as in vivo, mouse. The note with it: His:VB6=360:1; His 900, VB6 2.5 mg/kg/day one week plus oral dose; FIG. 7B. As to the method: Using CD2F1 mice (9-10-week-old) in the group constitution shown in Table 4, the test was performed as shown in the experiment protocol (FIG. 4A). The His group and His+VB6 group were allowed to drink each solution freely for one week so that the ingestion amount of His would be 900 mg/kg/day, and the ingestion amount of the VB6 group and the His+VB6 group would be […]. As the feed, a feed having the composition of Table 5 was used. After ingestion of His or VB6, or both for one week, insufficient sleep was burdened for 48 hr by filling water in the breeding cage at the depth of 0.5 cm. The burden was released at 6 hr from the start of the light phase, and the mice were placed back in the home cage and allowed to rest for 6 hr. […] A Y-maze test was performed at 3 hr from the start of the dark phase, and short-working memory was measured. […] A Y-maze test was performed at 3 hr from the start of the dark phase, and short-working memory was measured. […] A Y-maze test was performed at 3 hr from the start of the dark phase, and short-working memory was measured. […] A Y-maze test was performed at 3 hr from the start of the dark phase, and short-working memory was measured. […]

Where [4] appears, read: 14 days, after completion of CogHealth, p<0.05, FIG. 9E.
The mark [5] stands for this setting: 14 days, before CogHealth, vs control food, p<0.05, FIG. 9C.
[6] abbreviates: single ingestion, after completion of CogHealth.
Where [7] appears, read: single ingestion, before CogHealth, p<0.05, FIG. 10B.

Consider `N[C@@H](Cc1c[nH]cn1)C(=O)O` [His, histidine], for which the “fatigue factor scores of POMS” value in data set [1] (1.65 g L-histidine daily for 14 days vs control food, paired t-test p<0.05, FIG. 9B) was “significantly decreased”. Further, the “reaction time of cognitive function measurement task” value in data set [1] (14 days, CogHealth, vs control food, FIG. 9D) is “shortened”. The “reaction time of delayed recall task” value in data set [1] (14 days, CogHealth, vs control food, p<0.05, FIG. 9D) is “significantly decreased”. For the same compound, in data set [1] (setting [4]), the “VAS sense of attentiveness” value is recorded as “significantly increased”, the “VAS sense of depression” value is recorded as “significantly decreased” and the “VAS sense of motivation” value is “significantly increased”. In data set [1] (setting [5]), the “VAS sense of attentiveness” value is “significantly increased”, the “VAS sense of clear thinking” value is recorded as “significantly increased” and the “VAS sense of motivation” value is given as “significantly increased”. In addition, in data set [2] (single 1.65 g L-histidine, 1 hr after ingestion, vs control food), the “work time in 5 kinds of brain function measurement indices” value was “shortened”. Further, in data set [2] (setting [6]), the “VAS sense of concentration” value is given as “tended to increase” and the “VAS sense of depression” value is “tended to decrease”. For the same compound, the VAS vague sense result in data set [2] (single ingestion, after completion of CogHealth, p<0.05) is recorded as “significantly decreased”. Further, in data set [2] (single ingestion, before CogHealth, FIG. 10B), the “VAS sense of concentration” value is given as “tended to increase”. In data set [2] (setting [7]), the “VAS sense of attentiveness” value is given as “significantly increased” and the “VAS sense of clear thinking” value was “significantly increased”. Moreover, the “variation in general properties, hematology, and blood biochemistry” value in data set [3] is reported as “did not show problematic variation”. Also, in the data set on CD2F1 mice, the “alternation behavior as compared to the VB6 group” value is reported as “significant increase”.
